Test results from patent US9481670B2, “Triazine compounds” (Sphaera Pharma PTE. Ltd., priority 2011, dated 2016).

target: T1, PI3K alpha (Homo sapiens, UniProt P42336); assay: P110 Alpha TR-FRET Assay (PI3K alpha kinase assay, HTRF Transcreener ADP Assay); format: biochemical; settings: PI3K (WT)
T1 construct: purchased Millipore Upstate
Protocol: PI3K alpha kinase assay may be done using HTRF Transcreener ADP Assay (Cisbio).
Composition of the reaction buffer was as follows 50 mM HEPES, pH 7.5, 5 mM MgCl2, 1 mM DTT, 30 μM Na3VO4. PI3 Kinase was procured from Millipore Upstate. […] ATP was used at final concentration of 10 μM. Corning 384 well white plates were used for the assay.
2 μl of diluted enzyme (50 ng), 3 μl of diluted compound and 5 μl of buffer were added, mixed then incubated for 20 minutes with shaking at 400 rpm. 3 μl of substrate (10 μM of ATP and 5 μM PIP2) were added to initiate the reaction. The samples were incubated for 20 min. At the end of the reaction time 10 μl of the Detection mix (5 μl of ADP-D2 and 5 μl of Anti-ADP-Cryptate) was added and the contents were incubated for 1 h. The reaction plate was directly read in an Envision Multilabel Plate Reader.

T1 sequence (P42336 whole entry): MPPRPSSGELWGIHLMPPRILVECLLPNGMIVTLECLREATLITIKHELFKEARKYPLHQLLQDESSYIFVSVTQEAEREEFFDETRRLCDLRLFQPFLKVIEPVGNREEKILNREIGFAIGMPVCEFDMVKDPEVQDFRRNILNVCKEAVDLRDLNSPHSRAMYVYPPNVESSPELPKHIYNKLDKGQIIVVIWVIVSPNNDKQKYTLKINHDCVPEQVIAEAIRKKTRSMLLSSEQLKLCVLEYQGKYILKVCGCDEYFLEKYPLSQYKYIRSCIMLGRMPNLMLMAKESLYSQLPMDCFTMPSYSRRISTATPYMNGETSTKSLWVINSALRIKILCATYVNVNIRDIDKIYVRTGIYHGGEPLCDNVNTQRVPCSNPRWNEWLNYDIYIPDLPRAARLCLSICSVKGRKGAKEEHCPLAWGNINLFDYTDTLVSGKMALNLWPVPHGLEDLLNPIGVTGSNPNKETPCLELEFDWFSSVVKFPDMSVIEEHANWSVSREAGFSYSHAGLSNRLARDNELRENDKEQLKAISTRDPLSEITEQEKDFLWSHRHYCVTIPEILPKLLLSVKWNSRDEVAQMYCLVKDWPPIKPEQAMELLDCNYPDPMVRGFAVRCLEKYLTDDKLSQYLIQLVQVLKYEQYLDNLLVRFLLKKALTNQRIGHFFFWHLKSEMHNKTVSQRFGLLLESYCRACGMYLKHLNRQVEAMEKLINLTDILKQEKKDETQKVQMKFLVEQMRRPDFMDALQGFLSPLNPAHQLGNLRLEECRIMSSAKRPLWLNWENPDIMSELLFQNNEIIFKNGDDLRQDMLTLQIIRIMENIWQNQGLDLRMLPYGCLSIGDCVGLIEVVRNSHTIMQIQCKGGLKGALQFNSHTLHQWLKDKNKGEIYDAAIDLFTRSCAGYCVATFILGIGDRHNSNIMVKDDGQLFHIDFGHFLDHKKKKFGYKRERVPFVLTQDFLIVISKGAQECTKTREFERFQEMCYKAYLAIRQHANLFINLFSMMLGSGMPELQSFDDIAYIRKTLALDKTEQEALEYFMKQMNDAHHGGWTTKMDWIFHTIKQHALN
T1 sequence (P27986 whole entry partner): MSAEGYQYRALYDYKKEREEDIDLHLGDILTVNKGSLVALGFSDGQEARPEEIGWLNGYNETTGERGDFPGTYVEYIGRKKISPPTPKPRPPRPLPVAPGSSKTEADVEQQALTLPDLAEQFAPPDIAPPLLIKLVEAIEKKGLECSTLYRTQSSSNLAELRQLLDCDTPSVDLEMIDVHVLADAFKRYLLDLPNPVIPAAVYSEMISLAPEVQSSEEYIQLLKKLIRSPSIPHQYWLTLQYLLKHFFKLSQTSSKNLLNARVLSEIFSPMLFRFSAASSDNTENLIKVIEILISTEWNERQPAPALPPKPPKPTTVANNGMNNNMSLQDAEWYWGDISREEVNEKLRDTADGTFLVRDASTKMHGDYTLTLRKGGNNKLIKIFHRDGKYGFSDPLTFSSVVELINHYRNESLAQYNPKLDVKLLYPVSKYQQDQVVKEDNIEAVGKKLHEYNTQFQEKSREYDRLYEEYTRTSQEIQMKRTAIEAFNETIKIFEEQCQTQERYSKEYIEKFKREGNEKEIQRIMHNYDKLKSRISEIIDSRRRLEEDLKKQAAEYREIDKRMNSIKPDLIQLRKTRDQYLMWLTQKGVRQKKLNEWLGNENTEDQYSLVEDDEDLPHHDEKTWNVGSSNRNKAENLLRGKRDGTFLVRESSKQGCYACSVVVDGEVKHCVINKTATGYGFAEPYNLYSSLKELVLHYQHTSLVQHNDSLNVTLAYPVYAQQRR

| SMILES | IC50 [µM] |
| --- | --- |
| c1ccc(Nc2nc(-c3cccc4c3cnn4C3CCCCO3)nc(N3CCOCC3)n2)cc1 (centres unmarked) [Compound 1084, 4-morpholino-N-phenyl-6-(1-(tetrahydro-2H-pyran-2-yl)-1H-indazol-4-yl)-1,3,5-triazin-2-amine] | > 5 |
| Cc1nc(N)ccc1-c1nc(Oc2ccc(C(=O)N(C)C)cc2)nc(N2CCOCC2)n1 [Compound 1020, 4-14-{[4-1-(6-17-amino-2-19-methylpyridin-3-yl)-6-5-(morpholin-4-yl)-1,3,5-triazin-2-yl]oxy}-N,N-dimethylbenzamide] | < 5 |
| O=C1CCN(c2nc(-c3cccc4[nH]ncc34)nc(N3CCOCC3)n2)CCN1 [Compound 1206, 1-21-[4-1-(1H-indazol-4-yl)-6-5-(morpholin-4-yl)-1,3,5-triazin-2-yl]-1,4-diazepan-5-one] | < 5 |
| Nc1ccc(-c2nc(N3CCNCC3)nc(N3CCOCC3)n2)cn1 [Compound 1134, 5-18-[4-5-(morpholin-4-yl)-6-3-(piperazin-1-yl)-1,3,5-triazin-2-yl]pyridin-2-amine] | < 5 |
| CN(C)C(=O)[C@H]1CC[C@@H](Oc2nc(-c3cccc4[nH]ncc34)nc(N3CCOCC3)n2)CC1 [Compound 1143, (1s,4s)-4-21-{[4-1-(1H-indazol-4-yl)-6-5-(morpholin-4-yl)-1,3,5-triazin-2-yl]oxy}-N,N-dimethylcyclohexane-1-carboxamide] | < 5 |
| O=C(Nc1ccccn1)c1cccc(Nc2nc(-c3cccc4[nH]ncc34)nc(N3CCOCC3)n2)c1 [Compound 1129, 3-((4-(1H-indazol-4-yl)-6-morpholino-1,3,5-triazin-2-yl)amino)-N-(pyridin-2-yl)benzamide] | < 5 |
| Cc1cc(Oc2nc(-c3ccc(N)nc3)nc(N3CCOCC3)n2)ccc1C(=O)N(C)C [Compound 1021, 4-20-{[4-1-(6-16-aminopyridin-3-yl)-6-5-(morpholin-4-yl)-1,3,5-triazin-2-yl]oxy}-N,N,2-trimethylbenzamide] | < 5 |
| c1cc(-c2nc(NC3CCOCC3)nc(N3CCOCC3)n2)c2cn[nH]c2c1 [Compound 1225, 4-(1H-indazol-4-yl)-6-morpholino-N-(tetrahydro-2H-pyran-4-yl)-1,3,5-triazin-2-amine] | < 5 |
| O=C(O)c1cccc(Nc2nc(-c3cccc4[nH]ncc34)nc(N3CCOCC3)n2)c1 [Compound 1202, 3-((4-(1H-indazol-4-yl)-6-morpholino-1,3,5-triazin-2-yl)amino)benzoic acid] | < 5 |
| NC(=O)Cc1cccc(Nc2nc(-c3cccc4[nH]ncc34)nc(N3CCOCC3)n2)c1 [Compound 1195, 2-(3-((4-(1H-indazol-4-yl)-6-morpholino-1,3,5-triazin-2-yl)amino)phenyl)acetamide] | < 5 |
| Oc1ccc(-c2nc(N3CCNCC3)nc(N3CCOCC3)n2)cn1 [Compound 1105, 5-12-[4-5-(morpholin-4-yl)-6-3-(piperazin-1-yl)-1,3,5-triazin-2-yl]pyridin-2-ol] | < 5 |
| CN(C)C(=O)[C@H]1CC[C@@H](Nc2nc(-c3cccc4[nH]ncc34)nc(N3CCOCC3)n2)CC1 [Compound 1216, 4-((4-(1H-indazol-4-yl)-6-morpholino-1,3,5-triazin-2-yl)amino)-N,N-dimethylcyclohexanecarboxamide] | < 5 |
| CS(=O)(=O)N1CCN(c2nc(-c3cccc4[nH]ncc34)nc(N3CCOCC3)n2)CC1 [Compound 1211, 4-7-[4-3-(4-16-methanesulfonylpiperazin-1-yl)-6-5-(morpholin-4-yl)-1,3,5-triazin-2-yl]-1H-indazole] | < 5 |
| CN(C)C(=O)c1cc(Oc2nc(-c3cccc4[nH]ncc34)nc(N3CCOCC3)n2)cs1 [Compound 1067, 4-14-{[4-1-(1H-indazol-4-yl)-6-5-(morpholin-4-yl)-1,3,5-triazin-2-yl]oxy}-N,N-dimethylthiophene-2-carboxamide] | < 5 |
| CC(C)(CO)Nc1nc(-c2cccc(O)c2)nc(N2CCOCC2)n1 [Compound 1155, 3-6-{4-3-[(1-hydroxy-2-methylpropan-2-yl)amino]-6-5-(morpholin-4-yl)-1,3,5-triazin-2-yl}phenol] | < 5 |

Now from value to compound:

| IC50 [µM] | SMILES |
| --- | --- |
| < 5 | CN(C)C(=O)c1ccc(Oc2nc(-c3ccc(NN)nc3)nc(N3CCOCC3)n2)cc1 [Compound 1019, 4-14-{[4-1-(6-26-hydrazinylpyridin-3-yl)-6-5-(morpholin-4-yl)-1,3,5-triazin-2-yl]oxy}-N,N-dimethylbenzamide] |
| > 5 | CN(C)C(=O)CNc1nc(-c2cccc3c2CCC3O)nc(N2CCOCC2)n1 (centres unmarked) [Compound 1070, 2-((4-(1-hydroxy-2,3-dihydro-1H-inden-4-yl)-6-morpholino-1,3,5-triazin-2-yl)amino)-N,N-dimethylacetamide] |
| < 5 | NC(=O)c1sccc1Nc1nc(-c2cccc3[nH]ncc23)nc(N2CCOCC2)n1 [Compound 1158, 3-((4-(1H-indazol-4-yl)-6-morpholino-1,3,5-triazin-2-yl)amino)thiophene-2-carboxamide] |
| < 5 | c1ccc(Nc2nc(-c3cccc4[nH]ncc34)nc(N3CCOCC3)n2)cc1 [Compound 1219, 4-(1H-indazol-4-yl)-6-morpholino-N-phenyl-1,3,5-triazin-2-amine] |
| < 5 | COC1CCN(C(=O)c2cccc(Nc3nc(-c4cccc5[nH]ncc45)nc(N4CCOCC4)n3)c2)CC1 [Compound 1140, (3-((4-(1H-indazol-4-yl)-6-morpholino-1,3,5-triazin-2-yl)amino)phenyl)(4-methoxypiperidin-1-yl)methanone] |
| > 5 | CN(C)C(=O)c1ccc(Oc2nc(-c3cccc4[nH]ncc34)nc(N3CC4(COC4)C3)n2)cc1 [Compound 1055, 4-8-{[4-5-(1H-indazol-4-yl)-6-3-{2-oxa-6-azaspiro[3.3]heptan-6-yl}-1,3,5-triazin-2-yl]oxy}-N,N-dimethylbenzamide] |
| < 5 | CN(C)C(=O)c1ccc(Oc2nc(-c3ccc(N)nc3)nc(N3CCCOCC3)n2)cc1 [Compound 1014, 4-21-{[4-1-(6-9-aminopyridin-3-yl)-6-5-(1,4-oxazepan-4-yl)-1,3,5-triazin-2-yl]oxy}-N,N-dimethylbenzamide] |
| < 5 | Fc1ccc(-c2nc(N3CCNCC3)nc(N3CCOCC3)n2)cn1 [Compound 1127, 2-1-(6-16-fluoropyridin-3-yl)-4-5-(morpholin-4-yl)-6-3-(piperazin-1-yl)-1,3,5-triazine] |
| < 5 | CN(C)C(=O)c1ccc(Oc2nc(-c3cccc4[nH]ncc34)nc(N3CCOCC3)n2)cc1 [Compound 1114, 4-14-{[4-1-(1H-indazol-4-yl)-6-5-(morpholin-4-yl)-1,3,5-triazin-2-yl]oxy}-N,N-dimethylbenzamide] |
| < 5 | NC(=O)C(Cc1ccccc1)Nc1nc(-c2cccc(O)c2)nc(N2CCOCC2)n1 (centres unmarked) [Compound 1090, 2-((4-(3-hydroxyphenyl)-6-morpholino-1,3,5-triazin-2-yl)amino)-3-phenylpropanamide] |
| > 5 | CN(C)C(=O)c1ccc(Oc2nc(-c3cccc4[nH]ncc34)nc(N3CCNC(=O)C3)n2)cc1 [Compound 1059, 4-7-{[4-5-(1H-indazol-4-yl)-6-3-(3-29-oxopiperazin-1-yl)-1,3,5-triazin-2-yl]oxy}-N,N-dimethylbenzamide] |
| < 5 | C[C@H](Nc1nc(-c2ccc(N)nc2)nc(N2CCOCC2)n1)C(=O)N(C)C [Compound 1165, 2-((4-(6-aminopyridin-3-yl)-6-morpholino-1,3,5-triazin-2-yl)amino)-N,N-dimethylpropanamide] |
| > 5 | O=C(O)CNc1nc(-c2cccc([N+](=O)[O-])c2)nc(N2CCOCC2)n1 [Compound 1169, 2-((4-morpholino-6-(3-nitrophenyl)-1,3,5-triazin-2-yl)amino)acetic acid] |
| < 5 | CNC(=O)CNc1nc(-c2cccc(O)c2)nc(N2CCOCC2)n1 [Compound 1168, 2-((4-(3-hydroxyphenyl)-6-morpholino-1,3,5-triazin-2-yl)amino)-N-methylacetamide] |
| < 5 | CN(C)C(=O)c1ccc(Oc2nc(-c3ccc(F)nc3)nc(N3CCOCC3)n2)cc1 [Compound 1029, 4-14-{[4-1-(6-17-fluoropyridin-3-yl)-6-5-(morpholin-4-yl)-1,3,5-triazin-2-yl]oxy}-N,N-dimethylbenzamide] |
| < 5 | CN(C)C(=O)CNc1nc(-c2ccc(O)nc2)nc(N2CCOCC2)n1 [Compound 1145, 2-((4-(6-hydroxypyridin-3-yl)-6-morpholino-1,3,5-triazin-2-yl)amino)-N,N-dimethylacetamide] |
| < 5 | O=C1NCC2CN(c3nc(-c4cccc5[nH]ncc45)nc(N4CCOCC4)n3)CCC12 (centres unmarked) [Compound 1196, 5-8-[4-1-(1H-indazol-4-yl)-6-5-(morpholin-4-yl)-1,3,5-triazin-2-yl]-octahydro-1H-pyrrolo[3,4-c]pyridin-1-one] |
| < 5 | NC(=O)C1CN(C(=O)c2cccc(Nc3nc(-c4cccc5[nH]ncc45)nc(N4CCOCC4)n3)c2)C1 [Compound 1154, 1-(3-((4-(1H-indazol-4-yl)-6-morpholino-1,3,5-triazin-2-yl)amino)benzoyl)azetidine-3-carboxamide] |
| < 5 | CN(C)C(=O)[C@H]1CC[C@H](Oc2nc(-c3ccc(N)nc3)nc(N3CCOCC3)n2)CC1 [Compound 1035, (1r,4r)-4-9-{[4-1-(6-12-aminopyridin-3-yl)-6-5-(morpholin-4-yl)-1,3,5-triazin-2-yl]oxy}-N,N-dimethylcyclohexane-1-carboxamide] |
| > 5 | CN(C)C(=O)c1ccc(Oc2nc(-c3cccc4[nH]ncc34)nc(N3CCC(=O)CC3)n2)cc1 [Compound 1044, 4-8-{[4-5-(1H-indazol-4-yl)-6-3-(4-30-oxopiperidin-1-yl)-1,3,5-triazin-2-yl]oxy}-N,N-dimethylbenzamide] |
